We go through one compound from paper doi:10.1101/694877v2 (biorxiv, 2019).

The experiment addresses hAC2 (Homo sapiens, UniProt Q08462). Kind of experiment: stimulation of adenylate cyclase activity, HTRF cAMP assay. Type of experiment: biochemical. The following applies: 25 μM forskolin alone, no Gsα, no serum; 1 mM ATP, 2 mM MgCl2, pH 7.5.

hAC2, sequence (Q08462 whole entry): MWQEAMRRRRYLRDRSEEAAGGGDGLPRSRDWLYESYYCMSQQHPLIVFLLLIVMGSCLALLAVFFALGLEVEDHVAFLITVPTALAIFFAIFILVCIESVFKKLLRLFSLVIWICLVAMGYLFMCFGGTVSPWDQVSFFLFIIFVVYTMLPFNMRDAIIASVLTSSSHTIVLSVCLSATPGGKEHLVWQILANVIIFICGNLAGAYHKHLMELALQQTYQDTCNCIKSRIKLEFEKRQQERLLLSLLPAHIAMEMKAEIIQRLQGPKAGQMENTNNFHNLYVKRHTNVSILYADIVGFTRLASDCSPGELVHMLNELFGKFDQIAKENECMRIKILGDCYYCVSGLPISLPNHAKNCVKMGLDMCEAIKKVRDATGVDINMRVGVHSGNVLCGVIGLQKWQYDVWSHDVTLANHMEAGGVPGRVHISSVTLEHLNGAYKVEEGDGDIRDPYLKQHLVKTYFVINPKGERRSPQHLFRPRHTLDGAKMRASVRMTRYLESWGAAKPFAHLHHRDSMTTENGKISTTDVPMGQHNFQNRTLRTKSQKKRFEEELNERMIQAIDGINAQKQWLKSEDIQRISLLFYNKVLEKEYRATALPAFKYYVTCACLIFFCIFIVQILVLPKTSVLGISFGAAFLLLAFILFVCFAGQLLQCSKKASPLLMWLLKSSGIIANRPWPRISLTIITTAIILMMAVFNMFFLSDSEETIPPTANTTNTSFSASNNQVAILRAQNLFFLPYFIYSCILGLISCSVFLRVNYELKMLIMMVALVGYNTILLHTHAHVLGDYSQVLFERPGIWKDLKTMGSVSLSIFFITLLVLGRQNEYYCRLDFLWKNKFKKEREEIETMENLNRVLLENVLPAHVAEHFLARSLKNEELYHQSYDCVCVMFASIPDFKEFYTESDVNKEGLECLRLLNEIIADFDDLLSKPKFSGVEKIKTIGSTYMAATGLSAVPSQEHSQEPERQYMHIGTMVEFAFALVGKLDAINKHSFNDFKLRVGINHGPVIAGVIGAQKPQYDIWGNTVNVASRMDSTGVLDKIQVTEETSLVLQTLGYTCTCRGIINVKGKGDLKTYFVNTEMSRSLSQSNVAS

On to `C=C[C@@]1(C)CC(=O)[C@]2(O)[C@@]3(C)[C@@H](O)CCC(C)(C)[C@@H]3[C@H](O)[C@H](OC(C)=O)[C@@]2(C)O1` [forskolin], for which the “fold stimulation at 25 μM” value was ~ 2.4 fold.
